These results are taken from patent publication US20080248511A1, “METHODS TO QUENCH LIGHT FROM OPTICAL REACTIONS” (priority 2007, published 2008).

SMILES strings stand for the structures. Where two headings read alike, the source gives them in different places.

Common to all, as to assay type: biochemical
Experiment [1] concerns the target T1, firefly luciferase (Photinus pyralis, UniProt P08659). As to the kind of experiment: Detergent titration with Tergitol NP-9, digitonin or no lysing agent, firefly luciferase (Example 4). Conditions: read-out: Relative Firefly Luc Intensity; for remaining activity at 0.0005 %: 0.0005% detergent; for remaining activity at 0.005 %: 0.0050% detergent; for remaining activity at 0.05 %: 0.0500% detergent. How it is done:
For measurement of firefly luciferase-mediated luminescence, a solution containing 110 mM HEPES pH 7.5, 8 mM MgSO4, 0.05% gelatin, 7.35 ng/ml firefly luciferase (QuantiLum® Luciferase; Promega) and the content of the Steady-Glo Luciferase Substrate (Promega) at the equivalent of 1×, As in the Renilla luciferase reactions, reactions contained either no lysing agent, 0.5% Tergitol NP-9 or 20 μg/ml digitonin. The same detergents were titrated as described above and firefly luciferase-mediated luminescence was measured.

Experiment [2] concerns the target T2, Renilla luciferase (Renilla reniformis, UniProt P27652).
T2 sequence (P27652 1-311): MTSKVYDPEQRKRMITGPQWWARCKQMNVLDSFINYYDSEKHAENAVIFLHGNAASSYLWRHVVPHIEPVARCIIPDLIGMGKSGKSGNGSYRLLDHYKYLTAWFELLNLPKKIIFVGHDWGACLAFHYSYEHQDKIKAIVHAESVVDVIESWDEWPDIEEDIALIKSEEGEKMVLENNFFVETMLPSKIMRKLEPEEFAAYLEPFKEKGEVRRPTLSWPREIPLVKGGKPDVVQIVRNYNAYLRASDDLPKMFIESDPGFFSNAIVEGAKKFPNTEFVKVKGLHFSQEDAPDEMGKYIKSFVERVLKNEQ
The experiment is described as follows: Detergent titration with Tergitol NP-9, digitonin or no lysing agent, Renilla luciferase (Example 4). The following applies: for remaining activity at 0.0005 % / remaining activity at 0.005 % / remaining activity at 0.05 %: read-out: Relative Renilla Luc Intensity. As for the experimental part: Renilla luciferase-mediated luminescence was measured from samples containing 9.6 mM phosphate buffer pH 6.8, 2.7 mM KCl, 137 mM NaCl (in PBS), 0.1% gelatin, 75 nM coelentrazine (Promega) and 10.2 ng/ml Renilla luciferase. Reactions contained either no lysing agent, 0.5% Tergitol NP-9 or 20 μg/ml digitonin. The detergents to be tested were titrated to 0.05%, 0.005% or 0.0005% in the reactions prior to the addition of the Renilla luciferase. Renilla luciferase-mediated luminescence was measured as described herein.

Experiment [3] concerns the target T2, Renilla luciferase. The experiment is described as follows: biochemical. The following applies: 0.5% detergent in Renilla Luciferase Assay Reagent; read-out: Retained Renilla Luciferase Luminescence (%). How it is done: The retained luminescence for each luciferase was calculated by dividing the luminescence in the presence of the detergent by the luminescence in the absence of the test detergent. The selectivity value for each of the test detergents was determined by dividing the retained firefly luciferase luminescence by the retained Renilla luciferase luminescence.
A set of detergents (Table 2; Sigma-Aldrich) was added at 0.5% (from a 5% or 10% stock solution) to either Luciferase Assay Reagent (Promega) or Renilla Luciferase Assay Reagent (Promega) and allowed to equilibrate at room temperature.
The firefly luciferase and Renilla luciferase enzymes were diluted as follows. Firefly luciferase was diluted to 14 ng/ml in Phosphate Buffered Saline (PBS) containing 0.1% of the protein carrier Prionex® (Pentapharm). Renilla luciferase was diluted to 10 ng/ml in 1× Renilla Luciferase Lysis Buffer (Promega) containing 0.1% Prionex®. The Renilla Luciferase Lysis Buffer […] detergent micelles when using the Renilla Luciferase Assay Reagent. In the absence of other detergents, this prevents sequestering of coelenterazine which inhibits Renilla luciferase-mediated luminescence.
The luciferase reactions were initiated by adding 40 μl of either the firefly or Renilla luciferase enzyme solution to 200 μl of the appropriate reagent solution (firefly luciferase enzyme solution+firefly luciferase reagent solution or Renilla luciferase enzyme solution+Renilla luciferase reagent solution, respectively). The reactions were performed in an opaque white, 96-well plate and luminescence was measured for 0.5 seconds per well using a Turner BioSystems Veritas™ Microplate luminometer. The retained firefly luciferase and Renilla luciferase luminescence, as well as the selectivity values for each detergent, were calculated (Table 2).

Experiment [4] addresses T2, Renilla luciferase. The experiment is described as follows: Non-detergent compound screen, Renilla luciferase (Example 6). As for the experimental part:
(§1) Each compound was diluted into 200 mM MOPS pH 6.7, 4 μM MgSO4, 1 mM CDTA, 0.5% Tergitol NP-9, 0.05% Mazu-DF-204, 0.03% BDDABr, 30 mM thiourea, 1 mM bis-(2-mercaptoethylsulfone) (BMS), 4 μM CoA, and 1 μM 5-fluoroluciferin. Just prior to the luciferase reaction, 0.1% Prionex® (Pentapharm) and 2.9 μM coelenterazine-h (Promega) were added to each solution.
(§2) The firefly luciferase and Renilla luciferase enzymes were diluted as described in Examples 3 and 5. The luciferase reactions were initiated by adding 50 μl of the firefly luciferase and Renilla luciferase enzyme solution to 50 μl of reagent solution. The reactions were performed as described above. The retained Renilla and firefly luciferase-mediated luminescence and selectivity values for each inhibitor tested are listed in Table 6.

Experiment [5] addresses T1, firefly luciferase. The experiment is described as follows: Non-detergent compound screen, firefly luciferase (Example 6). The following applies: 0.5% Tergitol NP-9, 0.03% BDDABr, read-out: Retained Firefly Luciferase Value (%); for remaining activity at 1000 µM: inhibitor 1000 μM; for remaining activity at 23 µM: inhibitor 23 μM; for remaining activity at 153 µM: inhibitor 153 μM. As for the experimental part:
as §1, §2

Where [6] appears, read: inhibitor 1000 μM, 0.5% Tergitol NP-9, 0.03% BDDABr, read-out: Retained Renilla Luciferase Value (%).
[7] abbreviates: inhibitor 23 μM, 0.5% Tergitol NP-9, 0.03% BDDABr, read-out: Retained Renilla Luciferase Value (%).
[8] abbreviates: inhibitor 153 μM, 0.5% Tergitol NP-9, 0.03% BDDABr, read-out: Retained Renilla Luciferase Value (%).

T1 sequence (P08659 whole entry): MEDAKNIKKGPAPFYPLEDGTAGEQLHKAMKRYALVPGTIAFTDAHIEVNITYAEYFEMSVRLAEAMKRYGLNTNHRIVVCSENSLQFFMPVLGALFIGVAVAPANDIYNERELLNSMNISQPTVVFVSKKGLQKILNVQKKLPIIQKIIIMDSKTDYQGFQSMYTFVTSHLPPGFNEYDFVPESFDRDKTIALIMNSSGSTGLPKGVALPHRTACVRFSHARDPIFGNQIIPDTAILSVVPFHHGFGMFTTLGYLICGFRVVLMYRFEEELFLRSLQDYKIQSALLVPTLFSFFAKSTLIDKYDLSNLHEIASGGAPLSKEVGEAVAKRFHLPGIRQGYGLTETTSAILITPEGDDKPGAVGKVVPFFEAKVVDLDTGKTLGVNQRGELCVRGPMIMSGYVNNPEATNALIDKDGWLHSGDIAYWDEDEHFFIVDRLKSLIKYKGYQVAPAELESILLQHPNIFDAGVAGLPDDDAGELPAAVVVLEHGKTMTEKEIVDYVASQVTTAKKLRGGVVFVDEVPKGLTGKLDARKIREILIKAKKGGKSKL

For the compound `CCCCCCCCCCCCCCCC[N+](C)(C)C.[Cl-]` [Cetyltrimethylammonium chloride], the remaining activity at 0.0005 % in experiment [1] (Dig) was determined as 164%; in experiment [1] (Terg), 98%; in experiment [1] (Water) it was 179%; in experiment [2] (0.0005% detergent, Dig) it was 14%; in experiment [2] (0.0005% detergent, Terg) it was 95%; in experiment [2] (0.0005% detergent, Water), 13%. The remaining activity at 0.005 % stood at 65% in experiment [1] (Dig); 94% in experiment [1] (Terg); 70% in experiment [1] (Water); 0.02% in experiment [2] (0.0050% detergent, Dig); 71% in experiment [2] (0.0050% detergent, Terg); 0.02% in experiment [2] (0.0050% detergent, Water). In addition, the remaining activity at 0.05 % came to 29% in experiment [1] (Dig (20 μg/ml digitonin)); 38% in experiment [1] (Terg (0.5% Tergitol NP-9)); 31% in experiment [1] (Water (no lysing agent)); 6% in experiment [2] (0.0500% (w:v) detergent, Terg (0.5% Tergitol NP-9)); 0.02% in experiment [2] (0.0500% detergent, Dig (20 μg/ml digitonin)); 0.02% in experiment [2] (0.0500% detergent, Water (no lysing agent)). In addition, the “Selective Inhibition (Ff Luc Inh/Ren Luc Inh)” value in experiment [2] (0.0005% detergent, Dig) is 12; in experiment [2] (0.0005% detergent, Terg), 1.0; in experiment [2] (0.0005% detergent, Water), 13; in experiment [2] (0.0050% detergent, Dig), 2829; in experiment [2] (0.0050% detergent, Terg) it was 1.3; in experiment [2] (0.0050% detergent, Water), 3848. Also, the “Selective Inhibition (Ff Luc Inh/Ren Luc Inh)” value in experiment [2] (0.0500% detergent, Dig) came to 1395; in experiment [2] (0.0500% detergent, Terg), 6; in experiment [2] (0.0500% detergent, Water), 1611. For the same compound, in experiment [3], the remaining activity at 0.5 % was determined as 5.23%.
As for `COc1cc(CNC(=O)/C=C/c2ccc3[nH]cc(CCN(C)C)c3c2)cc(OC)c1OC` [Compound 3072, (E)-3-(3-(2-(dimethylamino)ethyl)-1H-indol-5-yl)-N-(3,4,5-trimethoxybenzyl)acrylamide], in experiment [4], the “inhibitor of Renilla luciferase, grade in words” value (“inhibitor of Renilla luciferase” below) was “inhibitors of Renilla luciferase”. In addition, the “Selectivity Value” in experiment [4] (inhibitor 10 μM) is 1; in experiment [4] (inhibitor 100 μM), 1.1; in experiment [4] (inhibitor 1000 μM) it was 1.8. In addition, the remaining activity at 10 µM in experiment [4] (inhibitor 10 μM, 0.5% Tergitol NP-9, 0.03% BDDABr, read-out: Retained Renilla Luciferase Value (%)) was 101%; in experiment [5] (inhibitor 10 μM), 101%. In addition, the remaining activity at 100 µM was 95% in experiment [4] (inhibitor 100 μM, 0.5% Tergitol NP-9, 0.03% BDDABr, read-out: Retained Renilla Luciferase Value (%)) and 101% in experiment [5] (inhibitor 100 μM). Moreover, the remaining activity at 1000 µM in experiment [4] (setting [6]) worked out at 55.2%; in experiment [5] it was 101%.
As to `C=C(C(=O)NCc1ccc(OC)cc1)c1ccc2[nH]ccc2c1` [Compound 3054, 2-(1H-indol-5-yl)-N-(4-methoxybenzyl)acrylamide], the “inhibitor of Renilla luciferase” value in experiment [4] is given as “suitable inhibitors of Renilla luciferase”. The “Selectivity Value” in experiment [4] (inhibitor 23 μM), in experiment [4] (inhibitor 153 μM) and in experiment [4] (inhibitor 1000 μM) was 1.1 throughout. Also, the figures for the remaining activity at 23 µM in experiment [4] (setting [7]) and in experiment [5] were 95% and 101%, respectively. The remaining activity at 153 µM was 95% in experiment [4] (setting [8]) and 102% in experiment [5]. Also, the remaining activity at 1000 µM in experiment [4] (setting [6]) stood at 93.3%; in experiment [5] it was 101%.
In the case of `C=C(C(=O)NCc1ccc(OC)cc1)c1ccc2ncccc2c1` [Compound 3053, N-(4-methoxybenzyl)-2-(quinolin-6-yl)acrylamide], the “inhibitor of Renilla luciferase” value in experiment [4] is recorded as “suitable inhibitors of Renilla luciferase”. Further, the “Selectivity Value” in experiment [4] (inhibitor 23 μM), in experiment [4] (inhibitor 153 μM) and in experiment [4] (inhibitor 1000 μM) was 1.1 in each case. For the same compound, the remaining activity at 23 µM in experiment [4] (setting [7]) was 95%; in experiment [5], 100%. The remaining activity at 153 µM is 90% in experiment [4] (setting [8]) and 97% in experiment [5]. In addition, the remaining activity at 1000 µM in experiment [4] (setting [6]) worked out at 84.7%; in experiment [5], 91%.
